Test results reported in paper PMC8868508, “Kassporin-KS1: A Novel Pentadecapeptide from the Skin Secretion of Kassina senegalensis: Studies on the Structure-Activity Relationships of Site-Specific “Glycine-Lysine” Motif Insertions” (Antibiotics, 2022).
≈ marks a conversion by molar mass, not a printed value. Where two headings read alike, the source gives them in different places. Where a SMILES comes first, the peptide text is derived from it.

Experiments:
[1] = system: S. aureus NCTC 10788 biofilm; type: cell-based, Staphylococcus aureus; details: NCTC 10788, 24 h
Method: (§1) As previously described, the MBIC and MBEC of the peptides against bacteria were determined. Staphylococcus aureus (S. aureus, NCTC 10788) and Escherichia coli (E. coli, NCTC 10418) was selected as representative strains. For the MBIC assay, the cultures were sub-cultured to their logarithmic growth phases. The diluted bacterial suspension was incubated with the peptide solution overnight in a 96-well plate. The resulting biofilm was washed with PBS solution, fixed with methanol, and dried. The biofilm was then stained with 0.1% (w/v) crystal violet, washed again with PBS, and dissolved in 30% acetic acid. The absorbance of the solution in each well at 595 nm was counted by the Synergy HT Microplate Spectrophotometer (Biotech, Minneapolis, MN, USA). Compared with the negative control, the lowest concentration that inhibits biofilm formation was MBIC. For the determination of MBEC, the diluted bacterial solution was incubated in the 96-well plate for 24 h, with 100 µL per well. Then, the biofilm was washed and re-incubated with 100 µL peptide-medium solution. After 24 h, the biofilm was again washed, stained, and dissolved as in the MBIC assay. Each well was detected at 595 nm by the same plate reader in MBIC. Compared with the negative control, the lowest concentration to eliminate biofilm was MBEC.

K. pneumoniae ATCC 43816 = type: cell-based, Klebsiella pneumoniae
Method: (§2) The inhibition of representative microorganisms by peptides was evaluated by the modified broth dilution technique. The microorganisms included Candida albicans (C. albicans, NCTC 10231), Enterococcus faecalis (E. faecalis, NCTC 12697), Staphylococcus aureus (S. aureus, NCTC 10788), Klebsiella pneumoniae (K. pneumoniae, ATCC 43816), Methicillin-resistant Staphylococcus aureus (MRSA, ATCC 12493), Pseudomonas aeruginosa (P. aeruginosa, ATCC 27853), and Escherichia coli (E. coli, NCTC 10418).
(§3) Firstly, the selected microorganism was incubated in conical flasks with 100 mL Mueller Hinton broth (MHB) overnight. Then, the bacterial solution was sub-cultured in 20 mL MHB until it reached the logarithmic growth phase. Meanwhile, the peptide solution was prepared. The peptide was dissolved into 128 × 10^2 μM solution with phosphate-buffered saline (PBS) and then double-diluted into 64, 32, 16, 8, 4, 2, and 1 × 10^2 μM. Each sample solution and positive control ([…] Norfloxacin) was added to 96-well plates and divided into five replicates, 1 μL per well. The blank control was 100 µL MHB, and the growth control was 100 µL bacterial solutions. When the optical density (OD) value corresponding to the microbial concentration reached the value (Gram-positive bacteria: 0.23; Gram-negative bacteria: 0.4; fungi: 0.15) in their logarithmic growth phase, the microorganisms were diluted to the required concentration with MHB (Gram-negative and Gram-positive bacteria: 5 × 10^5 CFU/mL; fungi: 1 × 10^6 CFU/mL).
(§4) The diluted bacterial solution was then added to the 96-well plate at 99 µL per well. The plate was incubated at 37 °C and observed the next day. The MIC was the corresponding lowest peptide concentration without microbial growth. The absorbance of the 96-well plate at 550 nm was measured by Synergy HT Microplate Spectrophotometer (Biotech, Minneapolis, MN, USA), and the obtained values were quantitatively analyzed by Prism 7 software. Subsequently, the concentrations corresponding to the clear solution were removed from the 96-well plate in 10 µL and dropped onto the solidified MHA. The Petri dishes with MHA were cultured overnight, observed and the minimum peptide concentration without colonies was MBC.

E. faecalis NCTC 12697 = type: cell-based, Enterococcus faecalis
Method: as §2, §3, §4

MRSA NCTC 12493 = type: cell-based, Methicillin-resistant Staphylococcus aureus
S. aureus NCTC 10788 [2] = type: cell-based, Staphylococcus aureus
Method: as §2, §3, §4

P. aeruginosa ATCC 27853 = type: cell-based, Pseudomonas aeruginosa
Method: as §2, §3, §4

C. albicans NCTC 10231 = type: cell-based, Candida albicans
Method: as §2, §3, §4

E. coli NCTC 10418 = type: cell-based, Escherichia coli
Method: as §2, §3, §4

[3] = system: E. coli NCTC 10418 biofilm; type: cell-based, Escherichia coli; details: NCTC 10418, 24 h
Method: as §1

S. aureus NCTC 10788 [4] = type: cell-based, Staphylococcus aureus; remark: listed apart in the source
Method: As mentioned in the previous study, the salt and pH sensitivities of AMPs exposed to physiological concentrations of salts or non-neutral environments were tested. MHB containing different ion concentrations (150 mM NaCl, 1 mM MgCl2, and 4 μM FeCl3) and MHB with pH 6.0 and pH 8.0 were prepared. The selected microorganism Staphylococcus aureus (S. aureus, NCTC 10788) was incubated overnight in the prepared medium, sub-cultured to the logarithmic phase, and then diluted to 5 × 10^5 CFU/mL. The subsequent steps were carried out as the MIC/MBC assay.

Structure (SMILES) | MIC (K. pneumoniae ATCC 43816) [µM] | MIC (E. faecalis NCTC 12697) [µM] | MIC (MRSA NCTC 12493) [µM] | MIC (S. aureus NCTC 10788 [2]) [µM] | MIC (P. aeruginosa ATCC 27853) [µM] | MIC (C. albicans NCTC 10231) [µM] | MIC (E. coli NCTC 10418) [µM] | MIC (S. aureus NCTC 10788 [4]) [µM] | MBEC [1] | MBC (K. pneumoniae ATCC 43816) [µM] | MBC (E. faecalis NCTC 12697) [µM] | MBC (MRSA NCTC 12493) [µM] | MBC (S. aureus NCTC 10788 [2]) [µM] | MBC (P. aeruginosa ATCC 27853) [µM] | MBC (C. albicans NCTC 10231) [µM] | MBC (E. coli NCTC 10418) [µM] | MBEC [3] | MBIC [3] | MBIC [1] | MBC (S. aureus NCTC 10788 [4]) [µM]
CC[C@H](C)[C@H](NC(=O)[C@H](C)NC(=O)[C@H](CCC(=O)O)NC(=O)[C@H](CCCCN)NC(=O)CNC(=O)[C@H](CC(C)C)NC(=O)[C@H](C)NC(=O)[C@H](CC(C)C)NC(=O)[C@H](C)NC(=O)[C@H](CC(C)C)NC(=O)[C@@H](N)Cc1ccccc1)C(=O)N[C@@H](C)C(=O)N[C@@H](CCCCN)C(=O)N[C@@H](CC(C)C)C(=O)N[C@@H](CCCCN)C(N)=O [QUB-1585] (H-FLALALGKEAIAKLK-NH2) | > 128 | 128 | 64 (≈ 101 µg/mL) | 32 | > 128 | 64 | 64 |  | 128 µM | > 128 | > 128 | 128 (≈ 203 µg/mL) | 64 | > 128 | 128 | 128 | 128/128 µM | 128/128 µM | 64 µM | > 128
CC[C@H](C)[C@H](NC(=O)[C@H](C)NC(=O)[C@H](CCC(=O)O)NC(=O)[C@H](CCC(N)=O)NC(=O)[C@H](CCCCN)NC(=O)CNC(=O)[C@H](C)NC(=O)[C@H](CC(C)C)NC(=O)[C@H](C)NC(=O)[C@H](CC(C)C)NC(=O)[C@@H](N)Cc1ccccc1)C(=O)N[C@@H](C)C(=O)N[C@@H](CCCCN)C(=O)N[C@@H](CC(C)C)C(=O)N[C@@H](CCCCN)C(N)=O [QUB-1599] (H-FLALAGKQEAIAKLK-NH2) | > 128 | > 128 | > 128 | > 128 | > 128 | > 128 | > 128 | > 128 | >128/>128 µM | > 128 | > 128 | > 128 | > 128 | > 128 | > 128 | > 128 | >128/>128 µM | >128/>128 µM | >128/>128 µM | > 128
CC[C@H](C)[C@H](NC(=O)[C@H](C)NC(=O)[C@H](CCC(=O)O)NC(=O)[C@H](CCC(N)=O)NC(=O)[C@@H](NC(=O)[C@H](CC(C)C)NC(=O)[C@H](CCCCN)NC(=O)CNC(=O)[C@H](C)NC(=O)[C@H](CC(C)C)NC(=O)[C@@H](N)Cc1ccccc1)[C@@H](C)CC)C(=O)N[C@@H](C)C(=O)N[C@@H](CCCCN)C(=O)N[C@@H](CC(C)C)C(=O)N[C@@H](CCCCN)C(N)=O [QUB-1643] (H-FLAGKLIQEAIAKLK-NH2) | > 128 | 128 | 64 (≈ 105 µg/mL) | 32 | > 128 | 64 | 128 |  | 128/>128 µM | > 128 | > 128 | 128 (≈ 210 µg/mL) | 64 | > 128 | 128 | > 128 | >128/>128 µM | >128/>128 µM | 128/>128 µM | 

More lines, main results first:

MIC (K. pneumoniae ATCC 43816) [µM] | MIC (E. faecalis NCTC 12697) [µM] | MIC (MRSA NCTC 12493) [µM] | MIC (S. aureus NCTC 10788 [2]) [µM] | MIC (P. aeruginosa ATCC 27853) [µM] | MIC (C. albicans NCTC 10231) [µM] | MIC (E. coli NCTC 10418) [µM] | MIC (S. aureus NCTC 10788 [4]) [µM] | Structure (SMILES) | MBEC [1] | MBC (K. pneumoniae ATCC 43816) [µM] | MBC (E. faecalis NCTC 12697) [µM] | MBC (MRSA NCTC 12493) [µM] | MBC (S. aureus NCTC 10788 [2]) [µM] | MBC (P. aeruginosa ATCC 27853) [µM] | MBC (C. albicans NCTC 10231) [µM] | MBC (E. coli NCTC 10418) [µM] | MBEC [3] | MBIC [3] | MBIC [1] | MBC (S. aureus NCTC 10788 [4]) [µM]
> 128 | 32 | 128 (≈ 192 µg/mL) | 16 | > 128 | 32 | 32 |  | CC[C@H](C)[C@H](NC(=O)[C@H](C)NC(=O)CNC(=O)CNC(=O)[C@@H](NC(=O)[C@H](CC(C)C)NC(=O)[C@H](C)NC(=O)[C@H](CC(C)C)NC(=O)[C@H](C)NC(=O)[C@H](CC(C)C)NC(=O)[C@@H](N)Cc1ccccc1)[C@@H](C)CC)C(=O)N[C@@H](C)C(=O)N[C@@H](CCCCN)C(=O)N[C@@H](CC(C)C)C(=O)N[C@@H](CCCCN)C(N)=O [QUB-1498] (H-FLALALIGGAIAKLK-NH2) | 128 µM | > 128 | 64 | > 128 | 16 | > 128 | > 128 | > 128 | >128/>128 µM | >128/>128 µM |  | 
32 | 8 | 4 (≈ 6.28 µg/mL) | 2 | > 128 | 8 | 16 |  | CC[C@H](C)[C@H](NC(=O)[C@H](C)NC(=O)[C@H](CCCCN)NC(=O)CNC(=O)[C@@H](NC(=O)[C@H](CC(C)C)NC(=O)[C@H](C)NC(=O)[C@H](CC(C)C)NC(=O)[C@H](C)NC(=O)[C@H](CC(C)C)NC(=O)[C@@H](N)Cc1ccccc1)[C@@H](C)CC)C(=O)N[C@@H](C)C(=O)N[C@@H](CCCCN)C(=O)N[C@@H](CC(C)C)C(=O)N[C@@H](CCCCN)C(N)=O [QUB-1570] (H-FLALALIGKAIAKLK-NH2) |  | 32 | 8 | 8 (≈ 12.6 µg/mL) | 8 | > 128 | 8 | 32 | 64 µM | 32 µM | 4 µM | 
128 | 16 | 8 (≈ 12.9 µg/mL) | 8 | > 128 | 16 | 8 |  | CC[C@H](C)[C@H](NC(=O)[C@H](C)NC(=O)[C@H](CCCCN)NC(=O)[C@@H]1CCCN1C(=O)[C@@H](NC(=O)[C@H](CC(C)C)NC(=O)[C@H](C)NC(=O)[C@H](CC(C)C)NC(=O)[C@H](C)NC(=O)[C@H](CC(C)C)NC(=O)[C@@H](N)Cc1ccccc1)[C@@H](C)CC)C(=O)N[C@@H](C)C(=O)N[C@@H](CCCCN)C(=O)N[C@@H](CC(C)C)C(=O)N[C@@H](CCCCN)C(N)=O [QUB-1609] (H-FLALALIPKAIAKLK-NH2) | 128 µM | > 128 | 64 | 16 (≈ 25.7 µg/mL) | 32 | > 128 | 32 | 64 | 128 µM | 64 µM | 16 µM | 
